PubChem BioAssay AID330 (DTP/NCI, 2004)
Several values for one entry are separate records, joined by “and”; a condition that tells them apart may be missing. Equal values may be shown once. Toxic doses and inconclusive results are not listed.

System: P388 leukemia ip, CD2F1 mice, survival T/C
Experiment: NCI In Vivo Anticancer Drug Screen. Data for tumor model P388 Leukemia (intraperitoneal) in CD2F1 (CDF1) mice
Settings: endpoint: median survival time, higher = longer survival
Method in brief: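 Mice carrying the transplanted tumor received test compound or vehicle. Survival was recorded in each group, and the value is the treated-group measurement divided by that of the vehicle-treated control group.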

[1] = dose: 6.25 mg/kg/injection, schedule: Q01DX009 (ip), vehicle: Klucel (hydroxypropylcellulose) (HPC)
[2] = dose: 12.5 mg/kg/injection, schedule: Q01DX009 (ip), vehicle: Klucel (hydroxypropylcellulose) (HPC)
[3] = dose: 50.0 mg/kg/injection, schedule: Q04DX003 (ip), vehicle: saline with Tween-80
[4] = dose: 100.0 mg/kg/injection, schedule: Q04DX003 (ip), vehicle: saline with Tween-80
[5] = dose: 200.0 mg/kg/injection, schedule: Q04DX003 (ip), vehicle: saline with Tween-80
[6] = dose: 60.0 mg/kg/injection, schedule: Q01DX005 (ip), vehicle: Klucel (hydroxypropylcellulose) (HPC)
[7] = dose: 50.0 mg/kg/injection, schedule: Q01DX005 (ip), vehicle: saline with Tween-80
[8] = dose: 100.0 mg/kg/injection, schedule: Q01DX005 (ip), vehicle: saline with Tween-80
[9] = dose: 200.0 mg/kg/injection, schedule: Q01DX005 (ip), vehicle: saline with Tween-80
[10] = dose: 50.0 mg/kg/injection, schedule: Q01DX009 (ip), vehicle: Klucel (hydroxypropylcellulose) (HPC)
[11] = dose: 100.0 mg/kg/injection, schedule: Q01DX009 (ip), vehicle: Klucel (hydroxypropylcellulose) (HPC)
[12] = dose: 200.0 mg/kg/injection, schedule: Q01DX009 (ip), vehicle: Klucel (hydroxypropylcellulose) (HPC)
[13] = dose: 50.0 mg/kg/injection, schedule: Q01DX009 (ip), vehicle: saline
[14] = dose: 100.0 mg/kg/injection, schedule: Q01DX009 (ip), vehicle: saline
[15] = dose: 50.0 mg/kg/injection, schedule: Q01DX005 (ip), vehicle: Klucel (hydroxypropylcellulose) (HPC)
[16] = dose: 200.0 mg/kg/injection, schedule: Q01DX005 (ip), vehicle: Klucel (hydroxypropylcellulose) (HPC)
[17] = dose: 25.0 mg/kg/injection, schedule: Q01DX009 (ip), vehicle: saline with Tween-80
[18] = dose: 50.0 mg/kg/injection, schedule: Q01DX009 (ip), vehicle: saline with Tween-80
[19] = dose: 100.0 mg/kg/injection, schedule: Q01DX009 (ip), vehicle: saline with Tween-80

Compound: CCCCCCCCCCCCCCC(C(=O)[O-])[n+]1ccccc1 (configuration not stated)
- T/C (dose: 15.0 mg/kg/injection, schedule: Q01DX005 (ip), vehicle: saline): 114 % of control
- T/C (dose: 30.0 mg/kg/injection, schedule: Q01DX005 (ip), vehicle: saline): 96 % of control
- T/C (dose: 60.0 mg/kg/injection, schedule: Q01DX005 (ip), vehicle: saline): 110 % of control

Compound: CCn1c(=O)c2ncnnc2n(CC)c1=O
- T/C [1]: 104 % of control
- T/C [2]: 111 % of control

Compound: NC(=S)N/N=C/c1cn(-c2ccc(N)cc2)cn1
- T/C (dose: 25.0 mg/kg/injection, schedule: Q04DX003 (ip), vehicle: Klucel (hydroxypropylcellulose) (HPC)): 100 % of control
- T/C (dose: 50.0 mg/kg/injection, schedule: Q04DX003 (ip), vehicle: Klucel (hydroxypropylcellulose) (HPC)): 91 % of control
- T/C (dose: 100.0 mg/kg/injection, schedule: Q04DX003 (ip), vehicle: Klucel (hydroxypropylcellulose) (HPC)): 100 % of control

Compound: COC(=O)c1[nH]c(=O)[nH]c(=O)c1N
- T/C (dose: 25.0 mg/kg/injection, schedule: Q04DX003 (ip), vehicle: saline with Tween-80): 100 % of control
- T/C [3]: 101 % of control
- T/C [4]: 100 % of control
- T/C [5]: 102 % of control

Compound: CC(=O)c1c(OCC(O)CN2CCCCC2)ccc2c(C)cc(=O)oc12 (configuration not stated)
- T/C (dose: 100.0 mg/kg/injection, schedule: Q04DX002 (ip), vehicle: saline with Tween-80): 100 % of control
- T/C (dose: 200.0 mg/kg/injection, schedule: Q04DX002 (ip), vehicle: saline with Tween-80): 101 % of control

Compound: O=C(Nc1ccc(C(=O)O)cc1)Nc1cc(C(F)(F)F)ccc1Cl
- T/C (dose: 60.0 mg/kg/injection, schedule: Q01DX005 (ip), vehicle: saline with Tween-80): 105 % of control
- T/C (dose: 120.0 mg/kg/injection, schedule: Q01DX005 (ip), vehicle: saline with Tween-80): 105 % of control
- T/C (dose: 240.0 mg/kg/injection, schedule: Q01DX005 (ip), vehicle: saline with Tween-80): 105 % of control

Compound: CC1=[N+]([O-])[N+]([O-])=C(C)C1=O
- T/C [1]: 91 % of control
- T/C [2]: 100 % of control

Compound: c1ccc(C2=NC(=c3ccc(=C4N=C(c5ccccc5)C(c5ccccc5)=N4)cc3)N=C2c2ccccc2)cc1
- T/C [6]: 90 % of control
- T/C (dose: 120.0 mg/kg/injection, schedule: Q01DX005 (ip), vehicle: Klucel (hydroxypropylcellulose) (HPC)): 90 % of control
- T/C (dose: 240.0 mg/kg/injection, schedule: Q01DX005 (ip), vehicle: Klucel (hydroxypropylcellulose) (HPC)): 100 % of control

Compound: O=c1[nH]cc(N=Cc2ccccc2F)c(=O)[nH]1
- T/C (dose: 50.0 mg/kg/injection, schedule: Q01DX009 (ip), vehicle: suspension in saline): 92 % of control
- T/C (dose: 100.0 mg/kg/injection, schedule: Q01DX009 (ip), vehicle: suspension in saline): 100 % of control
- T/C (dose: 200.0 mg/kg/injection, schedule: Q01DX009 (ip), vehicle: suspension in saline): 96 % of control

Compound: CCOC(=O)C1CCCCC12Nc1cccc3cccc(c13)N2 (configuration not stated)
- T/C [7]: 95 % of control
- T/C [8]: 105 % of control
- T/C [9]: 113 % of control

Compound: CCCCN(CCCC)C(=O)/C(O)=C(\O)C(=O)N(CCCC)CCCC
- T/C (dose: 25.0 mg/kg/injection, schedule: Q01DX005 (ip), vehicle: saline): 90 % of control
- T/C (dose: 50.0 mg/kg/injection, schedule: Q01DX005 (ip), vehicle: saline): 96 % of control
- T/C (dose: 100.0 mg/kg/injection, schedule: Q01DX005 (ip), vehicle: saline): 92 % of control
- T/C (dose: 200.0 mg/kg/injection, schedule: Q01DX005 (ip), vehicle: saline): 113 % of control

Compound: CCOC(=O)CCC(Cl)(Cl)Cl
- T/C [10]: 100 % of control
- T/C [11]: 100 % of control
- T/C [12]: 97 % of control

Compound: Cc1nn(C(=O)c2ccncc2)c(C)c1N=Nc1ccc(Cl)cc1
- T/C [13]: 99 % of control
- T/C [14]: 91 % of control
- T/C (dose: 200.0 mg/kg/injection, schedule: Q01DX009 (ip), vehicle: saline): 90 % of control

Compound: Cn1cc(C2=C(Cl)C(=O)N(c3cc(Cl)cc(Cl)c3)C2=O)c(=O)n(C)c1=O
- T/C (dose: 15.0 mg/kg/injection, schedule: Q01DX005 (ip), vehicle: Klucel (hydroxypropylcellulose) (HPC)): 99 % of control
- T/C (dose: 30.0 mg/kg/injection, schedule: Q01DX005 (ip), vehicle: Klucel (hydroxypropylcellulose) (HPC)): 99 % of control
- T/C [6]: 111 % of control

Compound: Cc1noc(C)c1-c1onc2ccc(Cl)cc12
- T/C [11]: 96 % of control
- T/C [12]: 96 % of control

Compound: Clc1ccc(/C=C/c2ccc3ccccc3n2)cc1
- T/C [10]: 109 % of control
- T/C [11]: 102 % of control
- T/C [12]: 107 % of control
- T/C (dose: 400.0 mg/kg/injection, schedule: Q01DX009 (ip), vehicle: Klucel (hydroxypropylcellulose) (HPC)): 93 % of control

Compound: CCCCN(CCCC)CCCN(CCCOS(C)(=O)=O)CCCOS(C)(=O)=O
- T/C (dose: 20.0 mg/kg/injection, schedule: Q01DX009 (ip), vehicle: saline): 181 % of control and 185 % of control
- T/C (dose: 40.0 mg/kg/injection, schedule: Q01DX009 (ip), vehicle: saline): 231 % of control and 236 % of control

Compound: O=[N+]([O-])c1ccc(Sc2ccc([N+](=O)[O-])cc2)cc1
- T/C [3]: 90 % of control
- T/C (dose: 66.0 mg/kg/injection, schedule: Q04DX003 (ip), vehicle: saline with Tween-80): 90 % of control
- T/C [4]: 100 % of control and 95 % of control
- T/C (dose: 150.0 mg/kg/injection, schedule: Q04DX003 (ip), vehicle: saline with Tween-80): 90 % of control
- T/C [5]: 90 % of control

Compound: Cc1cc(=O)c2cc3ccc4cccc5ccc(c2[nH]1)c3c45
- T/C [7]: 98 % of control
- T/C [8]: 103 % of control
- T/C [9]: 100 % of control

Compound: CC(=O)NC1C(=O)CC(c2ccccc2)N(C)C1c1ccccc1 (configuration not stated)
- T/C [15]: 101 % of control
- T/C (dose: 100.0 mg/kg/injection, schedule: Q01DX005 (ip), vehicle: Klucel (hydroxypropylcellulose) (HPC)): 97 % of control
- T/C [16]: 90 % of control

Compound: CCNc1nc(Cl)nc(NC(C)C)n1
- T/C [3]: 91 % of control
- T/C [4]: 87 % of control
- T/C [5]: 91 % of control

Compound: COc1cccc2c(NCCCCCO[N+](=O)[O-])cc[n+](C)c12
- T/C [2]: 104 % of control
- T/C (dose: 25.0 mg/kg/injection, schedule: Q01DX009 (ip), vehicle: Klucel (hydroxypropylcellulose) (HPC)): 110 % of control
- T/C [10]: 107 % of control

Compound: O=[N+]([O-])c1ccc(-c2nc(/C=N/N3CCOCC3)cs2)s1
- T/C [17]: 110 % of control
- T/C [18]: 115 % of control
- T/C [19]: 114 % of control

Compound: O=C(O)C1CSC(c2cccnc2)N1 (configuration not stated)
- T/C [13]: 89 % of control
- T/C [14]: 90 % of control

Compound: COc1cc(/C=C/C(=O)NCCc2c[nH]c3ccc(O)cc23)ccc1O
- T/C (dose: 6.25 mg/kg/injection, schedule: Q01DX005 (ip), vehicle: Klucel (hydroxypropylcellulose) (HPC)): 96 % of control
- T/C (dose: 12.5 mg/kg/injection, schedule: Q01DX005 (ip), vehicle: Klucel (hydroxypropylcellulose) (HPC)): 95 % of control
- T/C (dose: 25.0 mg/kg/injection, schedule: Q01DX005 (ip), vehicle: Klucel (hydroxypropylcellulose) (HPC)): 87 % of control and 90 % of control
- T/C [15]: 88 % of control
- T/C [16]: 88 % of control

Compound: S=C([S][Sn]([c]1ccccc1)([c]1ccccc1)[c]1ccccc1)N1CCCCC1
- T/C (dose: 3.12 mg/kg/injection, schedule: Q01DX009 (ip), vehicle: saline with Tween-80): 99 % of control
- T/C (dose: 6.25 mg/kg/injection, schedule: Q01DX009 (ip), vehicle: saline with Tween-80): 104 % of control
- T/C (dose: 12.5 mg/kg/injection, schedule: Q01DX009 (ip), vehicle: saline with Tween-80): 107 % of control
- T/C [17]: 112 % of control

Compound: CCCCCCCCC#CC(=O)OC
- T/C [18]: 97 % of control
- T/C [19]: 92 % of control
- T/C (dose: 200.0 mg/kg/injection, schedule: Q01DX009 (ip), vehicle: saline with Tween-80): 97 % of control

Compound: Nc1n[nH]c(CO)n1
- T/C (dose: 6.25 mg/kg/injection, schedule: Q01DX009 (ip), vehicle: saline): 95 % of control
- T/C (dose: 12.5 mg/kg/injection, schedule: Q01DX009 (ip), vehicle: saline): 91 % of control
- T/C (dose: 25.0 mg/kg/injection, schedule: Q01DX009 (ip), vehicle: saline): 104 % of control
- T/C [13]: 99 % of control
